Laboratory results as given in patent publication US11925608B2 (YS PHARMTECH, priority 2017, dated 2024).
Like-named read-outs stand apart in the source and are kept apart here.

Assays:
[1] = aqueous solution, cited from earlier work
[2] = Stability of epinephrine formulations after 1 month storage at 50° C. (HPLC potency, degradants, pH, appearance, O.D.); type: physicochemical
Protocol: Selected samples were also tested for drug chirality. The potency and chirality of drug were analyzed using HPLC methods. The degree of coloration was visually inspected and analytically measured their optical densities using a UV/VIS spectrophotometer at the maximum absorption wavelength (λmax) at 485 nm.

[3] = 1:10 cysteine-to-drug complex and commercial formulation
[4] = non-complex, acetylcysteine levels
[5] = non-complex, mixed antioxidants
[6] = non-complex, thioglycerol levels
[7] = pediatric formulations (1:2000)

Row | SMILES | association constant (K) of the inclusion complex with SBEβCD ([1]; pH 3.5) [M⁻¹] | association constant (K) of the inclusion complex with SBEβCD ([1]; pH 5.5) [M⁻¹] | Appearance ([2]; 1:1 cysteine-to-drug) | O.D. (Absorbance at λmax = 485 nm) ([2]; 1:1 cysteine-to-drug) | Appearance [2, 3] | O.D. (Absorbance at λmax = 485 nm) [2, 3] | Appearance ([2]; 2:1 cysteine-to-drug) | O.D. (Absorbance at λmax = 485 nm) ([2]; 2:1 cysteine-to-drug) | Appearance ([2]; 5:1 cysteine-to-drug) | O.D. (Absorbance at λmax = 485 nm) ([2]; 5:1 cysteine-to-drug) | Appearance [2, 4] | O.D. (Absorbance at λmax = 485 nm) [2, 4] | Appearance ([2]; non-complex, cysteine levels) | O.D. (Absorbance at λmax = 485 nm) ([2]; non-complex, cysteine levels) | Appearance [2, 5] | O.D. (Absorbance at λmax = 485 nm) [2, 5] | Appearance [2, 6] | O.D. (Absorbance at λmax = 485 nm) [2, 6] | Appearance [2, 7] | O.D. (Absorbance at λmax = 485 nm) [2, 7]
1 | CNCC(O)c1ccc(O)c(O)c1 (single isomer, unassigned; (-)) [epinephrine, (−)-3,4-Dihydroxy-α-[(methylamino)methyl]benzyl alcohol] | 488 | 111 | – | – | – | – | – | – | – | – | – | – | – | – | – | – | – | – | – | –
2 | II [0.0005N Iodine] | – | – | Slightly brownish | 0.1206 | Slightly brownish | 0.1354 | Slightly brownish | 0.1206 | Slightly brownish | 0.1290 | Slightly brownish | 0.1354 | Slightly brownish | 0.1354 | Slightly brownish | 0.1354 | Slightly brownish | 0.1354 | Slightly brownish | 0.1354
